For orientation: IC50 means the point on the concentration scale where inhibition reaches its midpoint.

One assay addresses T1, Heparanase (Homo sapiens, UniProt Q9Y251).
T1 sequence (Q9Y251 whole entry): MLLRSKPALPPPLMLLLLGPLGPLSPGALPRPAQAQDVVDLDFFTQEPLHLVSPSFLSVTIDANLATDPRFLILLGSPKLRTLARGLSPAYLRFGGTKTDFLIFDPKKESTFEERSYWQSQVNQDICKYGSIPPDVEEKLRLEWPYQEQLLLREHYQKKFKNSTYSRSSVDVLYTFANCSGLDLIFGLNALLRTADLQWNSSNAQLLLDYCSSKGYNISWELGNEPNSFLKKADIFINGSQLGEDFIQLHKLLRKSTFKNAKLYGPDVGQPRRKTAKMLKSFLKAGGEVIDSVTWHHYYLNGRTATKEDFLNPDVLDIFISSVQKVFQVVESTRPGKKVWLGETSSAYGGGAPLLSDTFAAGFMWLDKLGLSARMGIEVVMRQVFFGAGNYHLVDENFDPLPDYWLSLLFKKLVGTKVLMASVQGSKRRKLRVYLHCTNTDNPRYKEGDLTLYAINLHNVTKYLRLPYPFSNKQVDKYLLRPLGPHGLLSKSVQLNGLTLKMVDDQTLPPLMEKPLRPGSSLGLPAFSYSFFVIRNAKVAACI
The assay can be described thus: Inhibition of HPSE1 (unknown origin).

The next assay deals with T2, Beta-glucuronidase (Homo sapiens, UniProt P08236).
T2 sequence (P08236 whole entry): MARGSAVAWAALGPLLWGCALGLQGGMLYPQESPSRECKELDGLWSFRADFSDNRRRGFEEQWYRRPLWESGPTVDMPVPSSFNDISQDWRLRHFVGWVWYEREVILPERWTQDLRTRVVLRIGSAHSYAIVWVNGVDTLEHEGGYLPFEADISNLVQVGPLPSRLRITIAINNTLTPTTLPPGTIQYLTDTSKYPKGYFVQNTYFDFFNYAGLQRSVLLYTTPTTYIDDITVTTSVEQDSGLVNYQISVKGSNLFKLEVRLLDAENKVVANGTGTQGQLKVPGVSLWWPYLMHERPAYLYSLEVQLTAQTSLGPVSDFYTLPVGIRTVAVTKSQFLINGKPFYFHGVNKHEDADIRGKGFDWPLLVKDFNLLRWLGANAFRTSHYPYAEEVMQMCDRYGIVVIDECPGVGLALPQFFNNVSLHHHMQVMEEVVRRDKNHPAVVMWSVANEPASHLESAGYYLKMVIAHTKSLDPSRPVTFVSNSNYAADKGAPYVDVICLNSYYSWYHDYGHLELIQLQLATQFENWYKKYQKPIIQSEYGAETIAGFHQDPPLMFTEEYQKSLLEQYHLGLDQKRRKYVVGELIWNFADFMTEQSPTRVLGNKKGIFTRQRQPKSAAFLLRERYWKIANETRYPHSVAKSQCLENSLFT
The experiment in a line: Inhibition of GUSbeta (unknown origin).

Assay [1] is described as follows: Inhibition of GBA (unknown origin). Details: species or system Homo sapiens.

On to `CC(C)O[C@H]1[C@H](O)[C@@H](O)c2nc(CCc3cccc(Oc4ccccc4)c3)cn2[C@@H]1C(=O)O`, for which the figures for the IC50 (against Heparanase; on Beta-glucuronidase; in assay [1]) were 621 nM, 41800 nM and 38600 nM, respectively.

In assay [1], `CO[C@H]1[C@H](O)[C@@H](O)c2nc(CCc3cccc(Oc4ccccc4)c3)cn2[C@@H]1C(=O)O` displayed an IC50 of 439 nM.

With `O=C(O)[C@@H]1[C@@H](OCCc2ccccc2)[C@H](O)[C@@H](O)c2nc(CCc3cccc(Oc4ccccc4)c3)cn21`, the concentration for half-maximal inhibition (IC50) is 57 nM on Heparanase, 7210 nM against Beta-glucuronidase and 1250 nM in assay [1].

The values above are taken from ChEMBL document CHEMBL5584204, “Discovery of a novel tetrahydroimidazo[1,2-a]pyridine-5-carboxylic acid derivative as a potent and selective heparanase-1 inhibitor utilizing an improved synthetic approach” (Bioorg Med Chem Lett, 2024).
